In ChEMBL document CHEMBL3885881, “DrugMatrix”:

Species on record: Rattus norvegicus
Assay: DrugMatrix - Regimen: Daily Repeat
Type: toxicity, organism-based, Sprague-Dawley
Set-up: regimen Daily Repeat, gender Male, age 6-8 weeks
Details: in vivo, po, route oral GAVAGE, vehicle .5 % CMC; for ABSOLUTE BASOPHIL / ABSOLUTE EOSINOPHIL / ABSOLUTE LYMPHOCYTE / ABSOLUTE MONOCYTE / ABSOLUTE SEGMENTED NEUTROPHIL / BASOPHIL / EOSINOPHIL / ERYTHROCYTE COUNT / HEMATOCRIT / HEMOGLOBIN / LEUKOCYTE COUNT / LYMPHOCYTE / MEAN CORPUSCULAR HEMOGLOBIN / MEAN CORPUSCULAR HEMOGLOBIN CONCENTRATION / MEAN CORPUSCULAR VOLUME / MONOCYTE / NEUTROPHIL / NUCLEATED RED BLOOD CELLS / PLATELET COUNT: tissue Blood; for ALANINE AMINOTRANSFERASE / ALBUMIN / ALKALINE PHOSPHATASE / ASPARTATE AMINOTRANSFERASE / BLOOD UREA NITROGEN / CARBON DIOXIDE / CHLORIDE / CHOLESTEROL / CREATINE PHOSPHOKINASE / CREATININE / GLUCOSE / LACTATE DEHYDROGENASE / LIPASE / PHOSPHORUS / POTASSIUM / SODIUM / TOTAL BILIRUBIN / TOTAL PROTEIN / URIC ACID: tissue Plasma
[1] = 88 mg/kg, 72 h, dose level Low, time 3 day
[2] = 88 mg/kg, 120 h, dose level Low, time 5 day
[3] = 1500 mg/kg, 72 h, dose level High, time 3 day
[4] = 1500 mg/kg, 120 h, dose level High, time 5 day

In the case of `NC(=O)c1cnccn1` [PYRAZINAMIDE], the “ABSOLUTE BASOPHIL” value [1] is reported as 0 CELLS/uL, the “ABSOLUTE EOSINOPHIL” value [1] is reported as 30.67 CELLS/uL and the “ABSOLUTE LYMPHOCYTE” value [1] is reported as 12250.33 CELLS/uL. For the same compound, the “ABSOLUTE MONOCYTE” value [1] was 470.67 CELLS/uL, the “ABSOLUTE SEGMENTED NEUTROPHIL” value [1] was 1315 CELLS/uL and the BASOPHIL [1] was 0%. For the same compound, the EOSINOPHIL [1] was 0.33%, the “ERYTHROCYTE COUNT” value [1] was 5.55 x10E6/uL and the HEMATOCRIT [1] was 35.93%. The HEMOGLOBIN [1] was 13.4 G/DL, the “LEUKOCYTE COUNT” value [1] was 14.07 x10E3/uL and the LYMPHOCYTE [1] was 87%. The “MEAN CORPUSCULAR HEMOGLOBIN” value [1] was 24.2 pg, the “MEAN CORPUSCULAR HEMOGLOBIN CONCENTRATION” value [1] was 37.27 G/DL and the “MEAN CORPUSCULAR VOLUME” value [1] was 64.83 fL. The MONOCYTE [1] was 3%, the NEUTROPHIL [1] was 9.67% and the “NUCLEATED RED BLOOD CELLS” value [1] was 0 /100WBC. For the same compound, the “PLATELET COUNT” value [1] was 1204.33 x10E3/uL, the “ALANINE AMINOTRANSFERASE” value [1] was 44.33 u/L and the ALBUMIN [1] was 4.73 G/DL. For the same compound, the “ALKALINE PHOSPHATASE” value [1] was 375 u/L, the “ASPARTATE AMINOTRANSFERASE” value [1] was 85.33 u/L and the “BLOOD UREA NITROGEN” value [1] was 14.67 mg/dL. For the same compound, the “CARBON DIOXIDE” value [1] was 22.67 mmol/L, the CHLORIDE [1] was 102.67 MEQ/L and the CHOLESTEROL [1] was 74.33 mg/dL. The “CREATINE PHOSPHOKINASE” value [1] was 282.33 u/L, the CREATININE [1] was 0.22 mg/dL and the GLUCOSE [1] was 147 mg/dL. For the same compound, the “LACTATE DEHYDROGENASE” value [1] was 427 u/L, the LIPASE [1] was 10 u/L and the PHOSPHORUS [1] was 12.4 mg/dL. The POTASSIUM [1] was 7.05 MEQ/L, the SODIUM [1] was 145.67 MEQ/L and the “TOTAL BILIRUBIN” value [1] was 0.27 mg/dL. The “TOTAL PROTEIN” value [1] was 5.97 G/DL, the “URIC ACID” value [1] was 2.43 mg/dL and the “ABSOLUTE BASOPHIL” value [2] was 0 CELLS/uL. For the same compound, the “ABSOLUTE EOSINOPHIL” value [2] was 154 CELLS/uL, the “ABSOLUTE LYMPHOCYTE” value [2] was 11236 CELLS/uL and the “ABSOLUTE MONOCYTE” value [2] was 491 CELLS/uL. For the same compound, the “ABSOLUTE SEGMENTED NEUTROPHIL” value [2] was 1385.67 CELLS/uL, the BASOPHIL [2] was 0% and the EOSINOPHIL [2] was 1%. For the same compound, the “ERYTHROCYTE COUNT” value [2] was 5.75 x10E6/uL, the HEMATOCRIT [2] was 35.9% and the HEMOGLOBIN [2] was 13.43 G/DL. The “LEUKOCYTE COUNT” value [2] was 13.27 x10E3/uL, the LYMPHOCYTE [2] was 85% and the “MEAN CORPUSCULAR HEMOGLOBIN” value [2] was 23.4 pg. For the same compound, the “MEAN CORPUSCULAR HEMOGLOBIN CONCENTRATION” value [2] was 37.47 G/DL, the “MEAN CORPUSCULAR VOLUME” value [2] was 62.43 fL and the MONOCYTE [2] was 3.67%. The NEUTROPHIL [2] was 10.33%, the “NUCLEATED RED BLOOD CELLS” value [2] was 0.33 /100WBC and the “PLATELET COUNT” value [2] was 1159.33 x10E3/uL. The “ALANINE AMINOTRANSFERASE” value [2] was 36 u/L, the ALBUMIN [2] was 4.27 G/DL and the “ALKALINE PHOSPHATASE” value [2] was 325.33 u/L. The “ASPARTATE AMINOTRANSFERASE” value [2] was 95.33 u/L, the “BLOOD UREA NITROGEN” value [2] was 20 mg/dL and the “CARBON DIOXIDE” value [2] was 24 mmol/L. For the same compound, the CHLORIDE [2] was 108.33 MEQ/L, the CHOLESTEROL [2] was 66 mg/dL and the “CREATINE PHOSPHOKINASE” value [2] was 516 u/L. For the same compound, the CREATININE [2] was 0.22 mg/dL, the GLUCOSE [2] was 133.67 mg/dL and the “LACTATE DEHYDROGENASE” value [2] was 846.33 u/L. It also gave an LIPASE [2] of 9 u/L, a PHOSPHORUS [2] of 11.63 mg/dL and a POTASSIUM [2] of 5.99 MEQ/L. The SODIUM [2] was 145.83 MEQ/L, the “TOTAL BILIRUBIN” value [2] was 0.13 mg/dL and the “TOTAL PROTEIN” value [2] was 6.07 G/DL. For the same compound, the “URIC ACID” value [2] was 1.4 mg/dL, the “ABSOLUTE BASOPHIL” value [3] was 0 CELLS/uL and the “ABSOLUTE EOSINOPHIL” value [3] was 133 CELLS/uL. The “ABSOLUTE LYMPHOCYTE” value [3] was 8872.33 CELLS/uL, the “ABSOLUTE MONOCYTE” value [3] was 166.33 CELLS/uL and the “ABSOLUTE SEGMENTED NEUTROPHIL” value [3] was 1061.67 CELLS/uL. The BASOPHIL [3] was 0%, the EOSINOPHIL [3] was 1.33% and the “ERYTHROCYTE COUNT” value [3] was 5.4 x10E6/uL. For the same compound, the HEMATOCRIT [3] was 35.87%, the HEMOGLOBIN [3] was 13.37 G/DL and the “LEUKOCYTE COUNT” value [3] was 10.23 x10E3/uL. The LYMPHOCYTE [3] was 86.67%, the “MEAN CORPUSCULAR HEMOGLOBIN” value [3] was 24.8 pg and the “MEAN CORPUSCULAR HEMOGLOBIN CONCENTRATION” value [3] was 37.33 G/DL. The “MEAN CORPUSCULAR VOLUME” value [3] was 66.4 fL, the MONOCYTE [3] was 1.67% and the NEUTROPHIL [3] was 10.33%. The “NUCLEATED RED BLOOD CELLS” value [3] was 0 /100WBC, the “PLATELET COUNT” value [3] was 1418.67 x10E3/uL and the “ALANINE AMINOTRANSFERASE” value [3] was 48.33 u/L. For the same compound, the ALBUMIN [3] was 4.13 G/DL, the “ALKALINE PHOSPHATASE” value [3] was 315.67 u/L and the “ASPARTATE AMINOTRANSFERASE” value [3] was 85.67 u/L. The “BLOOD UREA NITROGEN” value [3] was 16.67 mg/dL, the “CARBON DIOXIDE” value [3] was 28 mmol/L and the CHLORIDE [3] was 103.33 MEQ/L. For the same compound, the CHOLESTEROL [3] was 73 mg/dL, the “CREATINE PHOSPHOKINASE” value [3] was 136.33 u/L and the CREATININE [3] was 0.15 mg/dL. The GLUCOSE [3] was 153 mg/dL, the “LACTATE DEHYDROGENASE” value [3] was 76 u/L and the LIPASE [3] was 9 u/L. For the same compound, the PHOSPHORUS [3] was 10.47 mg/dL, the POTASSIUM [3] was 5.73 MEQ/L and the SODIUM [3] was 146 MEQ/L. The “TOTAL BILIRUBIN” value [3] was 0.23 mg/dL, the “TOTAL PROTEIN” value [3] was 5.77 G/DL and the “URIC ACID” value [3] was 1.47 mg/dL. The “ABSOLUTE BASOPHIL” value [4] was 0 CELLS/uL, the “ABSOLUTE EOSINOPHIL” value [4] was 88 CELLS/uL and the “ABSOLUTE LYMPHOCYTE” value [4] was 11940 CELLS/uL. For the same compound, the “ABSOLUTE MONOCYTE” value [4] was 519 CELLS/uL, the “ABSOLUTE SEGMENTED NEUTROPHIL” value [4] was 1353 CELLS/uL and the BASOPHIL [4] was 0%. The EOSINOPHIL [4] was 0.67%, the “ERYTHROCYTE COUNT” value [4] was 6.59 x10E6/uL and the HEMATOCRIT [4] was 40.1%. For the same compound, the HEMOGLOBIN [4] was 14.83 G/DL, the “LEUKOCYTE COUNT” value [4] was 13.9 x10E3/uL and the LYMPHOCYTE [4] was 86%. For the same compound, the “MEAN CORPUSCULAR HEMOGLOBIN” value [4] was 22.5 pg, the “MEAN CORPUSCULAR HEMOGLOBIN CONCENTRATION” value [4] was 37.03 G/DL and the “MEAN CORPUSCULAR VOLUME” value [4] was 60.83 fL. The MONOCYTE [4] was 3.67%, the NEUTROPHIL [4] was 9.67% and the “NUCLEATED RED BLOOD CELLS” value [4] was 0 /100WBC. The “PLATELET COUNT” value [4] was 1142.67 x10E3/uL, the “ALANINE AMINOTRANSFERASE” value [4] was 56.33 u/L and the ALBUMIN [4] was 4.53 G/DL. For the same compound, the “ALKALINE PHOSPHATASE” value [4] was 308 u/L, the “ASPARTATE AMINOTRANSFERASE” value [4] was 93.33 u/L and the “BLOOD UREA NITROGEN” value [4] was 16.67 mg/dL. The “CARBON DIOXIDE” value [4] was 25.33 mmol/L, the CHLORIDE [4] was 104.5 MEQ/L and the CHOLESTEROL [4] was 70.67 mg/dL. For the same compound, the “CREATINE PHOSPHOKINASE” value [4] was 254.33 u/L, the CREATININE [4] was 0.17 mg/dL and the GLUCOSE [4] was 185.67 mg/dL. For the same compound, the “LACTATE DEHYDROGENASE” value [4] was 177.33 u/L, the LIPASE [4] was 9 u/L and the PHOSPHORUS [4] was 12.47 mg/dL. For the same compound, the POTASSIUM [4] was 5.72 MEQ/L, the SODIUM [4] was 147.8 MEQ/L and the “TOTAL BILIRUBIN” value [4] was 0.2 mg/dL. For the same compound, the “TOTAL PROTEIN” value [4] was 6.07 G/DL and the “URIC ACID” value [4] was 1.37 mg/dL.
